Source: PubChem BioAssay AID248 (DTP/NCI, 2004)
Values joined by “and” are separate entries in the source; they are usually repeats but may differ in a detail not shown here. Equal entries are not always repeated. Inconclusive results and toxic doses are left out.

Tested on: L1210 leukemia ip in BDF1 mice, survival T/C
Assay: NCI In Vivo Anticancer Drug Screen. Data for tumor model L1210 Leukemia (intraperitoneal) in B6D2F1 (BDF1) mice
Settings: endpoint: mean survival time, higher = longer survival
Summary of the method: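 Transplantable tumor model; survival measured in treated vs vehicle control mice. Value = treated/control.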

For `C=CC(CN1CC1)OC(C)=O` (configuration not stated), the T/C (dose: 0.25 mg/kg/injection, schedule: Q03DX Z (ip), vehicle: saline) was 104 % of control, the T/C (dose: 0.5 mg/kg/injection, schedule: Q01DX010 (oral), vehicle: saline) was 120 % of control and the T/C (dose: 0.5 mg/kg/injection, schedule: Q03DX Z (ip), vehicle: saline) was 98 % of control. The T/C (dose: 0.95 mg/kg/injection, schedule: Q01DX Z (ip), vehicle: olive oil, sesame oil, peanut oil) was 105 % of control, the T/C (dose: 0.95 mg/kg/injection, schedule: Q01DX Z (oral), vehicle: olive oil, sesame oil, peanut oil) was 100 % of control and the T/C (dose: 1.0 mg/kg/injection, schedule: Q03DX Z (ip), vehicle: saline) was 106 % of control. The T/C (dose: 1.0 mg/kg/injection, schedule: Q07DX Z (ip), vehicle: saline) was 105 % of control, the T/C (dose: 1.2 mg/kg/injection, schedule: Q01DX Z (ip), vehicle: carboxymethylcellulose (CMC)) was 104 % of control and the T/C (dose: 1.24 mg/kg/injection, schedule: Q01DX Z (ip), vehicle: carboxymethylcellulose (CMC)) was 109 % of control. For the same molecule, the T/C (dose: 1.3 mg/kg/injection, schedule: Q#A X Z (ip), vehicle: other) was 112 % of control, the T/C (dose: 1.8 mg/kg/injection, schedule: Q01DX Z (ip), vehicle: carboxymethylcellulose (CMC)) was 93 % of control and 98 % of control and the T/C (dose: 1.8 mg/kg/injection, schedule: Q01DX Z (oral), vehicle: carboxymethylcellulose (CMC)) was 102 % of control. The T/C (dose: 1.9 mg/kg/injection, schedule: Q01DX Z (ip), vehicle: olive oil, sesame oil, peanut oil) was 116 % of control, the T/C (dose: 1.9 mg/kg/injection, schedule: Q01DX Z (oral), vehicle: olive oil, sesame oil, peanut oil) was 103 % of control and the T/C (dose: 1.9 mg/kg/injection, schedule: Q01DX Z (oral), vehicle: other) was 102 % of control. The T/C (dose: 2.0 mg/kg/injection, schedule: Q01DX006 (iv), vehicle: saline) was 100 % of control, the T/C (dose: 2.0 mg/kg/injection, schedule: Q01DX010 (oral), vehicle: saline) was 100 % of control and the T/C (dose: 2.0 mg/kg/injection, schedule: Q02DX004 (im), vehicle: saline) was 116 % of control. For the same molecule, the T/C (dose: 2.0 mg/kg/injection, schedule: Q07DX Z (ip), vehicle: saline) was 95 % of control, the T/C (dose: 2.48 mg/kg/injection, schedule: Q01DX Z (ip), vehicle: carboxymethylcellulose (CMC)) was 109 % of control and the T/C (dose: 2.5 mg/kg/injection, schedule: Q01DX Z (oral), vehicle: saline) was 121 % of control. For the same molecule, the T/C (dose: 2.6 mg/kg/injection, schedule: Q01DX Z (ip), vehicle: other) was 117 % of control, the T/C (dose: 2.6 mg/kg/injection, schedule: Q01DX Z (sc), vehicle: other) was 119 % of control and the T/C (dose: 2.7 mg/kg/injection, schedule: Q01DX Z (ip), vehicle: carboxymethylcellulose (CMC)) was 118 % of control. The T/C (dose: 3.25 mg/kg/injection, schedule: Q01DX Z (ip), vehicle: saline) was 151 % of control, the T/C (dose: 3.25 mg/kg/injection, schedule: Q01DX Z (oral), vehicle: saline) was 161 % of control and the T/C (dose: 3.7 mg/kg/injection, schedule: Q01DX Z (ip), vehicle: carboxymethylcellulose (CMC)) was 93 % of control. For the same molecule, the T/C (dose: 3.7 mg/kg/injection, schedule: Q01DX Z (oral), vehicle: carboxymethylcellulose (CMC)) was 101 % of control and 90 % of control, the T/C (dose: 3.75 mg/kg/injection, schedule: Q01DX Z (ip), vehicle: olive oil, sesame oil, peanut oil) was 122 % of control and the T/C (dose: 3.75 mg/kg/injection, schedule: Q01DX Z (oral), vehicle: olive oil, sesame oil, peanut oil) was 105 % of control. The T/C (dose: 3.8 mg/kg/injection, schedule: Q01DX Z (ip), vehicle: olive oil, sesame oil, peanut oil) was 90 % of control, the T/C (dose: 3.8 mg/kg/injection, schedule: Q01DX Z (oral), vehicle: other) was 120 % of control and the T/C (dose: 4.0 mg/kg/injection, schedule: Q01DX006 (iv), vehicle: saline) was 108 % of control. For the same molecule, the T/C (dose: 4.0 mg/kg/injection, schedule: Q01DX Z (sc), vehicle: other) was 122 % of control, the T/C (dose: 4.0 mg/kg/injection, schedule: Q02DX004 (im), vehicle: saline) was 120 % of control and the T/C (dose: 4.0 mg/kg/injection, schedule: Q07DX Z (ip), vehicle: saline) was 115 % of control. The T/C (dose: 4.5 mg/kg/injection, schedule: Q#A X Z (ip), vehicle: other) was 102 % of control, the T/C (dose: 7.5 mg/kg/injection, schedule: Q01DX009 (ip), vehicle: saline) was 191 % of control and the T/C (dose: 7.5 mg/kg/injection, schedule: Q01DX Z (ip), vehicle: carboxymethylcellulose (CMC)) was 104 % of control. For the same molecule, the T/C (dose: 7.5 mg/kg/injection, schedule: Q01DX Z (ip), vehicle: saline) was 259 % of control, the T/C (dose: 7.5 mg/kg/injection, schedule: Q01DX Z (oral), vehicle: carboxymethylcellulose (CMC)) was 93 % of control and 96 % of control and the T/C (dose: 7.5 mg/kg/injection, schedule: Q01DX Z (oral), vehicle: olive oil, sesame oil, peanut oil) was 111 % of control. The T/C (dose: 7.5 mg/kg/injection, schedule: Q01DX Z (oral), vehicle: saline) was 150 % of control, the T/C (dose: 7.6 mg/kg/injection, schedule: Q01DX Z (oral), vehicle: olive oil, sesame oil, peanut oil) was 150 % of control and the T/C (dose: 7.6 mg/kg/injection, schedule: Q01DX Z (oral), vehicle: other) was 88 % of control. For the same molecule, the T/C (dose: 8.0 mg/kg/injection, schedule: Q03DX Z (ip), vehicle: other) was 153 % of control, the T/C (dose: 8.0 mg/kg/injection, schedule: Q07DX Z (ip), vehicle: saline) was 121 % of control and the T/C (dose: 9.0 mg/kg/injection, schedule: Q01DX Z (ip), vehicle: other) was 100 % of control. The T/C (dose: 10.0 mg/kg/injection, schedule: Q01DX Z (oral), vehicle: saline) was 169 % of control, the T/C (dose: 11.0 mg/kg/injection, schedule: Q01DX001 (ip), vehicle: saline) was 109 % of control and 118 % of control and the T/C (dose: 12.0 mg/kg/injection, schedule: Q03DX Z (ip), vehicle: other) was 159 % of control. For the same molecule, the T/C (dose: 14.85 mg/kg/injection, schedule: Q01DX Z (ip), vehicle: carboxymethylcellulose (CMC)) was 96 % of control, the T/C (dose: 15.0 mg/kg/injection, schedule: Q01DX009 (ip), vehicle: saline) was 107 % of control and the T/C (dose: 15.0 mg/kg/injection, schedule: Q01DX Z (ip), vehicle: carboxymethylcellulose (CMC)) was 120 % of control. For the same molecule, the T/C (dose: 15.0 mg/kg/injection, schedule: Q01DX Z (ip), vehicle: saline) was 111 % of control, the T/C (dose: 15.0 mg/kg/injection, schedule: Q01DX Z (oral), vehicle: carboxymethylcellulose (CMC)) was 102 % of control and 117 % of control and the T/C (dose: 15.0 mg/kg/injection, schedule: Q01DX Z (oral), vehicle: saline) was 108 % of control. The T/C (dose: 15.1 mg/kg/injection, schedule: Q01DX Z (oral), vehicle: olive oil, sesame oil, peanut oil) was 104 % of control, the T/C (dose: 15.1 mg/kg/injection, schedule: Q01DX Z (oral), vehicle: other) was 96 % of control and the T/C (dose: 16.0 mg/kg/injection, schedule: Q02DX004 (im), vehicle: saline) was 189 % of control. For the same molecule, the T/C (dose: 17.0 mg/kg/injection, schedule: Q01DX001 (ip), vehicle: saline) was 116 % of control, the T/C (dose: 18.0 mg/kg/injection, schedule: Q03DX Z (ip), vehicle: other) was 112 % of control and the T/C (dose: 18.0 mg/kg/injection, schedule: Q07DX Z (ip), vehicle: other) was 175 % of control. The T/C (dose: 19.8 mg/kg/injection, schedule: Q01DX Z (ip), vehicle: carboxymethylcellulose (CMC)) was 96 % of control, the T/C (dose: 20.0 mg/kg/injection, schedule: Q01DX Z (oral), vehicle: saline) was 106 % of control and the T/C (dose: 25.0 mg/kg/injection, schedule: Q01DX001 (ip), vehicle: saline) was 153 % of control. The T/C (dose: 27.0 mg/kg/injection, schedule: Q03DX Z (ip), vehicle: other) was 89 % of control, the T/C (dose: 28.0 mg/kg/injection, schedule: Q07DX Z (ip), vehicle: other) was 158 % of control and the T/C (dose: 30.0 mg/kg/injection, schedule: Q01DX Z (ip), vehicle: saline) was 105 % of control. The T/C (dose: 30.0 mg/kg/injection, schedule: Q01DX Z (oral), vehicle: carboxymethylcellulose (CMC)) was 101 % of control and 113 % of control, the T/C (dose: 30.0 mg/kg/injection, schedule: Q01DX Z (oral), vehicle: saline) was 111 % of control and 88 % of control and the T/C (dose: 32.0 mg/kg/injection, schedule: Q02DX004 (im), vehicle: saline) was 97 % of control. The T/C (dose: 32.0 mg/kg/injection, schedule: Q07DX Z (ip), vehicle: saline) was 210 % of control, the T/C (dose: 50.0 mg/kg/injection, schedule: Q01DX001 (ip), vehicle: saline) was 94 % of control and the T/C (dose: 60.0 mg/kg/injection, schedule: Q01DX Z (ip), vehicle: saline) was 116 % of control. For the same molecule, the T/C (dose: 60.0 mg/kg/injection, schedule: Q01DX Z (oral), vehicle: saline) was 113 % of control.

In the case of `CCCCOC(c1ccccc1)N1CCCCC1` (configuration not stated), the T/C (dose: 200.0 mg/kg/injection, schedule: Q01DX001 (ip), vehicle: carboxymethylcellulose (CMC)) is reported as 95 % of control.
